pEC50, pIC50: −log10 of the molar value. Read-outs that look alike come from different tables or passages of the source. *1 amine or outer side, *2 acyl side, *3 side chain or, on linkers, in order; H or OH if unused. Where a SMILES comes first, the peptide text is derived from it. [ ]: non-standard residue; d: D form. X2 = C[C@@H]1C([C@@H](N[*:1])C(=O)[*:2])[C@H]1C; X1 = C[C@@H]1C([C@H](N[*:1])C(=O)[*:2])[C@H]1C; X3 = CC1C(C)C1C(N[*:1])C(=O)[*:2]; NMeL = CN[CH](CC(C)C)C(=O)O; NMeA = CN[CH](C)C(=O)O; dNMeA = CN[C@H](C)C(=O)O
Legend:
[1] = system: MCF7-tumor xenograft; assay: MCF7 xenograft mouse model; conditions: for Inhibition of MCF7 tumor growth (excised tumor weights): twice a week for 3 weeks
Experimental: The treatment started on the 12th day when the MCF7-tumor size reached approximately 100 mm^3 (L×W×H). Two doses of MV-A (1.0 and 2.0 mg/kg), paclitaxel (5 mg/kg), and vehicle were administered via i.p. (intraperitoneal), i.v. (intravenous), or oral respectively, to the tumor-bearing mice twice a week for 3 weeks ([…]).
Antitumor animal study. All animal studies were approved and performed according to Animal Care and Use Guidelines of the Animal Ethics Committee at Hong Kong Baptist University and performed following Animal Care and Use guidelines set by NIH (National Institute of Health, USA). BALB/c nude mice, SPF class, male or female, 5-6 weeks old, were purchased from Charles River Laboratories. Before the experiment, it is one week of acclimatization to SPF class laboratory conditions. MV-A is tested for its anticancer activity against HCT116 and MCF7 cancer cells using a number of nude mice (Balc/nu/nu, female) in comparison of paclitaxel and maytansine. HCT116 or MCF7 cancer cells are subcutaneously implanted with 5×10^6 cells in the rear flank of each mouse. Female mice receiving MCF-7 cells are implanted with an s.c. pellet of 17β-estradiol (0.72 mg/pellet) a few days prior to injection to induce tumors. […] The mice are divided into 5 groups for HCT116 cancer cells: one high dose (1.0 mg/kg: 10 mice) group of MV-A, one low dose (0.5 mg/kg: 10 mice) group of MV-A, one dose (5.0 mg/kg: 10 mice) of paclitaxel, one dose of maytansine (0.1 mg/kg) and one dose of vehicle (negative control: 10 mice). The mice are then divided into 4 groups for MCF7 cancer cells: one high dose (2.0 mg/kg: 10 mice) group of MV-A, one low dose (1.0 mg/kg: 10 mice) group of MV-A, one dose (5.0 mg/kg: 10 mice) of paclitaxel, and one dose of vehicle (negative control: 10 mice). Every other day administration via i.p. (intraperitoneal), i.v. (intravenous), or oral, respectively are scheduled for 21 days for the HCT116 groups. Twice a week injections administered via i.p. (intraperitoneal), i.v. (intravenous), or oral, respectively are scheduled for […] for the MCF7 groups. Weights of mice and tumor diameters are measured twice a week until the end of the experiment. The tumor size in mm^3 was calculated by the formula: tumor size=length×width×height (L×W×H).

[2] = system: 3T3-L1 murine adipocytes; assay: 3T3-L1 adipocyte cell viability; type: cell-based; conditions: differentiated 3T3-L1 adipocytes
Experimental: (§1) MV-A, MV-B, MV-C and MV-D are evaluated for their anti-obesity effects in 3T3-L1 murine adipocytes. 3T3-L1 cells are cultured in the presence of insulin to induce adipocyte differentiation.
(§2) Pure compounds are evaluated against 3T3-L1 cell line for their potential anti-obesity activity. […] After the cells reach 100% confluence, the culture medium is changed to a differentiation DMEM medium containing 10% FCS, […], 0.5 mM 3-isobutyl-1-methylxanthine (IBMX), 90 U/mL penicillin, […] and 10 μg/mL insulin for induction of the adipocyte form of the 3T3-L1 cells. After 2 days, the differentiation medium is changed back to the normal DMEM medium and refreshed with the normal medium every 2 days. After incubation of additional 7 days, the cells are seeded in two sets of 96-well plates (about 10,000 cells per well). The test compounds in different concentrations are then added to the wells with 0.5% aqueous DMSO as control group. After incubation of 7 days, the differentiated 3T3-L1 adipocytes are treated with 2% Triton-X 100 ([…]) for 30 min at room temperature followed by sonication for 1 min. Fat accumulation is determined by measuring the liberated triglyceride using a Wato Triglyceride E-test Kit with the absorbance at 630/690 nm. The fat-accumulation rate is calculated as a percentage of the DMSO control. […] The cell viability of the differentiated 3T3-L1 adipocytes in another 96-well plate is treated with a Wako Cell Counting Kit-8 Test and measured with the absorbance at 450 nm. The cell viability is calculated as a percentage of the control.

[3] = Body weight of mice after drug treatment; conditions: 1 mg/kg and 2 mg/kg
[4] = system: 3T3-L1 murine adipocytes; assay: 3T3-L1 fat accumulation (triglyceride) assay; type: cell-based; conditions: differentiated 3T3-L1 adipocytes, 7 days, read-out: Anti-obesity activity (fat accumulation) EC50
Experimental: as §1, §2

[5] = system: lung cancer cell line (A549); assay: Hollow fiber in vivo test, A549; design: species or system mouse
Experimental: (§3) Hollow fiber tests are well known in the art for providing preliminary indications of therapeutic efficacy (Mi et al. J. Nat. Prod. 2002, 65: 842-850). In hollow fiber tests, human tumor cell lines currently employed in cell cultures are grown inside semipermeable hollow fibers to form heterogeneous solid tumor models. […] By evaluating the test compound's inhibition of tumor cell growth versus the toxic response in the host, a preliminary estimate of therapeutic efficacy is provided in a cost- and time effective manner.

[6] = system: HCT116-tumor xenograft; assay: HCT116 xenograft mouse model; type: in vivo; conditions: for Inhibition of HCT116 tumor growth (excised tumor weights): every other day for 21 days
Experimental: The treatment started on the 6th day when the HCT116-tumor reached approximately 100 mm^3 (L×W×W). […] All mice died for the maytansine group after the initial two treatments at the dose of 0.1 mg/kg, indicating the highly toxicity of maytansine.

[7] = system: cervical cancer cell line (Hela); assay: Hollow fiber in vivo test, Hela; design: species or system mouse
Experimental: as §3

[8] = system: melanoma cancer cell line (A375); assay: Hollow fiber in vivo test, A375; design: species or system mouse
Experimental: as §3

[9] = system: breast cancer cell line (MCF7); assay: Hollow fiber in vivo test, MCF7; design: species or system mouse
Experimental: as §3

[10] = system: colon cancer cell line (HCT116); assay: Hollow fiber in vivo test, HCT116; design: species or system mouse
Experimental: as §3

[11] = system: panel of cancer cell lines comprising KB, HCT116, LNCaP, A549, MCF7, HL60, Hela and A375; conditions: for pIC50: read-out: Cell killing activity, IC50 values range over the panel, range over panel of human cancer cell lines
[12] = system: oral epidermoid (KB) carcinoma cell line; assay: Cytotoxicity assay (sulforhodamine B), KB; type: cell-based, human; conditions: KB cells; for pIC50: 72 hours, read-out: Cytotoxic activity IC50, KB
Experimental: (§4) Pure compounds are evaluated against the human cancer cell lines comprising our cytotoxicity screening panel. Cytotoxicity assays involving oral epidermoid (KB), colon (HCT116), prostate (LNCaP), breast (MCF7), Hela (cervical), leukemia (HL-60) melanoma (A375) and lung (A549) carcinoma cell lines, are performed using sulforhodamine B according to established protocols (Zhang et al., Journal of Medicinal Chemistry 2006; 49: 693-708; and Jutiviboonsuk A et al., Phytochemistry 2005; 66: 2745-2751.). KB and A375 cells are maintained in DMEM (Dulbecco's modified Eagle medium) medium. LNCaP and HL60 cells are maintained in RPMI1640 medium with hormone-free 10% heat-activated FBS (fetal bovine serum) supplemented with 0.1 nM testosterone. MCF7 and Hela cells are maintained and assayed in MEME (Minimum Essential Medium Eagle) medium containing 10 mg/L of insulin. HCT116 cells are maintained in McCoy's 5A medium supplemented with 10% fetal bovine serum. A549 cells are maintained in RPMI-1640 medium supplemented with 10% FCS. Serial dilutions of the compounds are prepared using 10% aqueous DMSO as solvent. The 190 μL cell suspension (3×10^4 cells in 1 ml media) is incubated with 10 μL sample solutions, in triplicate, in 96-well tissue culture plate at 37° C. in a humidified atmosphere of 5% CO2 in air for 72 hours. 10 μL 10% aqueous DMSO is used as control group. Then the cells are fixed to plastic substratum by the addition of 100 μL cold 20% aqueous trichloroacetic acid and washing with water after incubation at 4° C. for 30 min. After staining cells with 100 μL of 0.4% sulforhodamine B in 1% aqueous AcOH for 30 min, unbound dye is removed by rinsing with 1% aqueous AcOH. The bound dye is solubilized with 200 μL 10 mM unbuffered Tris base, pH 10, and the optical density is measured at 515 nm using an ELISA plate reader. The average data are expressed as a percentage, relative to the control. The IC50 values, the dose that inhibit cell growth by 50%, are calculated using nonlinear regression analysis (percent survival versus concentration).

[13] = system: lung (A549) carcinoma cell line; assay: cells; type: cell-based, human; conditions: for pIC50: 72 hours, read-out: Cytotoxic activity IC50, A549; for IC90: read-out: Cytotoxic activity IC90, A549
Experimental: as §4

[14] = system: breast (MCF7) carcinoma cell line; assay: cells; type: cell-based, human; conditions: for pIC50: 72 hours, read-out: Cytotoxic activity IC50, MCF7; for IC90: read-out: Cytotoxic activity IC90, MCF7
Experimental: as §4

[15] = system: colon (HCT116) carcinoma cell line; assay: Cytotoxicity assay (sulforhodamine B), HCT116; conditions: read-out: Cytotoxic activity IC50, HCT116; HCT116 cells, 72 hours
Experimental: as §4

[16] = system: prostate (LNCaP) carcinoma cell line; assay: cells; type: cell-based, human; conditions: Homo sapiens, 72 hours, read-out: Cytotoxic activity IC50, LNCaP
Experimental: as §4

CC(C)C[C@H]1NC(=O)[C@@H](C)N(C)C(=O)[C@H](C)N(C)C(=O)[C@H](C2[C@@H](C)[C@@H]2C)NC(=O)[C@H](CC(C)C)N(C)C(=O)[C@H](C)N(C)C(=O)[C@@H](C2[C@@H](C)[C@@H]2C)NC1=O (stereo partly drawn) [MV-A] (cyclo([NMeA][NMeL][X1][NMeA][dNMeA][dL][X2]))
Inhibition of MCF7 tumor growth (excised tumor weights) ([1]; 1.0 mg/kg (low dose)): 48.1% | Inhibition of MCF7 tumor growth (excised tumor weights) ([1]; 2.0 mg/kg (high dose)): 72.6% | Weight loss of mice after the first two treatments ([1]; MCF7 xenograft, 1.0 and 2.0 mg/kg groups): 1 to 2 g | pIC50 [2]: 7.89 | Mortality during the treatments [3]: No mice die | Toxicity observed from dissection of the mice [3]: No sign of toxicity | Drop of average weight of mice after the first two treatments ([3]; intravenous, intraperitoneal or oral): 1 to 2 g | pEC50 [4]: 9.52 | Inhibition (%) ([5]; A549-IP, 0.05 mg/kg): 18.2% | Inhibition (%) ([5]; A549-IP, 0.1 mg/kg): 56.6% | Inhibition (%) ([5]; A549-SC, 0.05 mg/kg): 0% | Inhibition (%) ([5]; A549-SC, 0.1 mg/kg): 36.4% | Inhibition of HCT116 tumor growth (excised tumor weights) ([6]; 0.5 mg/kg (low dose)): 31.1% | Inhibition of HCT116 tumor growth (excised tumor weights) ([6]; 1.0 mg/kg (high dose)): 52.8% | Weight loss of mice after the first two treatments ([6]; HCT116 xenograft, 0.5 and 1.0 mg/kg groups): 1 to 2 g | Inhibition (%) ([7]; Hela-IP, 0.2 mg/kg): 45.8% | Inhibition (%) ([7]; Hela-IP, 0.4 mg/kg): 82.7% | Inhibition (%) ([7]; Hela-SC, 0.2 mg/kg): 23.2% | Inhibition (%) ([7]; Hela-SC, 0.4 mg/kg): 52.8% | Inhibition (%) ([8]; A375-IP, 0.2 mg/kg): 35.3% | Inhibition (%) ([8]; A375-IP, 0.4 mg/kg): 67.4% | Inhibition (%) ([8]; A375-SC, 0.2 mg/kg): 17.2% | Inhibition (%) ([8]; A375-SC, 0.4 mg/kg): 27.8% | Inhibition (%) ([9]; MCF7-IP, 0.05 mg/kg): 65.9% | Inhibition (%) ([9]; MCF7-IP, 0.1 mg/kg): 76.8% | Inhibition (%) ([9]; MCF7-IP, 0.2 mg/kg): 68.3% | Inhibition (%) ([9]; MCF7-IP, 0.4 mg/kg): 66.7% | Inhibition (%) ([9]; MCF7-SC, 0.05 mg/kg): 0% | Inhibition (%) ([9]; MCF7-SC, 0.1 mg/kg): 0% | Inhibition (%) ([9]; MCF7-SC, 0.2 mg/kg): 13.9% | Inhibition (%) ([9]; MCF7-SC, 0.4 mg/kg): 56.0% | Inhibition (%) ([10]; HCT116-IP, 0.1 mg/kg): 33.1% | Inhibition (%) ([10]; HCT116-IP, 0.2 mg/kg): 53.3% | Inhibition (%) ([10]; HCT116-IP, 0.8 mg/kg): 65.0% | Inhibition (%) ([10]; HCT116-SC, 0.1 mg/kg): 0% | Inhibition (%) ([10]; HCT116-SC, 0.2 mg/kg): 15.1% | Inhibition (%) ([10]; HCT116-SC, 0.8 mg/kg): 12.7% | pIC50 [11]: 8.82 to 10.30

CC(C)C[C@H]1NC(=O)[C@@H](C)N(C)C(=O)[C@H](C)N(C)C(=O)[C@H](C2[C@@H](C)[C@@H]2C)NC(=O)[C@H](CC(C)CO)N(C)C(=O)[C@H](C)N(C)C(=O)[C@@H](C2[C@@H](C)[C@@H]2C)NC1=O (stereo partly drawn) [MV-B]
pIC50 [2]: 7.08 | pEC50 [4]: 8.59 | pIC50 [11]: 8.04 to 9.15

CC(C)CC1NC(=O)C(C)N(C)C(=O)C(C)N(C)C(=O)C(C2C(C)C2C)NC(=O)C(CC(C)C)N(C)C(=O)C(C)N(C)C(=O)C(CC(C)C)NC1=O (stereo not drawn) [Compound 3] (cyclo([X3][NMeA][NMeA]LL[NMeA][NMeL]); configuration not given here)
pIC50 [12]: 7.90 | pIC50 [13]: 7.29 | pIC50 [14]: 7.58 | pIC50 [15]: 7.36 | Reduction in activity in comparison with 1 ([11]; compound with only one DMCPA residue versus 1): at least 100 times

CC(C)C[C@H]1NC(=O)[C@@H](C)N(C)C(=O)[C@H](C)N(C)C(=O)[C@H](C2[C@@H](C)[C@@H]2C)NC(=O)[C@H](CC(C)C)N(C)C(=O)[C@H](C)N(C)C(=O)[C@@H](CC(C)C)NC1=O (stereo partly drawn) [MV-C] (HELM PEPTIDE1{[meA].[meL].[C[C@@H]1C([C@H](N[*:1])C(=O)[*:2])[C@H]1C].[meA].[C[C@H](C(=O)[*:2])N(C)[*:1]].[dL].[dL]}$PEPTIDE1,PEPTIDE1,1:R1-7:R2$$$V2.0)
pIC50 [2]: 6.16 | pEC50 [4]: 7.41 | pIC50 [11]: 7.22 to 7.92

CC[C@]1(O)C[C@@H]2CN(CCc3c([nH]c4ccccc34)[C@@](C(=O)OC)(c3cc4c(cc3OC)N(C)[C@H]3[C@@](O)(C(=O)OC)[C@H](OC(C)=O)[C@]5(CC)C=CCN6CC[C@]43[C@@H]65)C2)C1 [Vinblastine, reference compound]
Cytotoxic activity IC90, KB [12]: 10.1 nM | IC90 ([13]; Homo sapiens): > 40 nM | IC90 ([14]; Homo sapiens): > 50 nM

COc1cc2cc(c1Cl)N(C)C(=O)C[C@H](OC(=O)[C@H](C)N(C)C(C)=O)[C@]1(C)O[C@H]1[C@H](C)[C@@H]1C[C@@](O)(NC(=O)O1)[C@H](OC)/C=C/C=C(\C)C2 [Maytansine, reference compound]
pIC50 ([12]; Homo sapiens): 9.80 | Cytotoxic activity IC90, KB [12]: ~5 nM | pIC50 ([13]; Homo sapiens): 8.50 | IC90 ([13]; Homo sapiens): > 40 nM | pIC50 [16]: 9.25 | Mortality of tumor-bearing mice ([6]; 0.1 mg/kg, after the first two treatments): All mice died | pIC50 ([14]; Homo sapiens): 9.16 | IC90 ([14]; Homo sapiens): > 20 nM

Reference: US9963485B2, “Cycloheptapeptide agents for treatment of cancer and obesity diseases” (Hong Kong Baptist University, priority 2012, dated 2018)
